1 compound from US12590953B2, “Methods for screening cereblon modifying compounds” (CELGENE CORPORATION, priority 2018, dated 2026) can be followed below.

The target of one data set is T1, SALL4 (Homo sapiens, UniProt Q96SW2).
T1 construct: from tissue; host or cells: testis of homozygous huCRBN knock-in mice
Nature of the data set: SALL4 immunohistochemistry in huCRBN mouse testis. The class given is in vivo. To be noted: huCRBN mice, up to 1000 mg/kg for 7 days. How it is done:
The SALL4 and ZFP91 protein levels were examined by immunohistochemistry in rabbit, wild-type mouse, and humanized cereblon mouse testes. […] HuCRBN Mice were treated for 7 days and testis were collected and examined by immunohistochemistry (n=3 animals per treatment group per species).
Rabbit embryos were stained for SALL4, and mouse testis were stained for SALL4 and ZFP91. Immunohistochemistry (IHC) was performed on the Bond-III automated slide stainer (Leica Microsystems, Buffalo Grove, Ill.) using the Bond Polymer Refine Detection system (Leica Microsystems, DS9800). Formalin fixed paraffin embedded (FFPE) tissues were sectioned at four micron thick and deparaffinized on the Bond-Max instrument. Antigen retrieval was performed with Epitope Retrieval 2 (ER2, pH 9.0) for 20 min at 100° C. The slides were blocked for endogenous peroxidase activity with Peroxide Block for 5 minutes at room temperature. Sections were then incubated with the mouse monoclonal anti-SALL4 EE-30 antibody (Santa Cruz, sc-101147) at a 1:100 dilution for 60 min at room temperature, or with the rabbit monoclonal anti-ZFP91 antibody (Celgene custom clone 122-8-6) at 0.25 ug/ml. For mouse testis, primary antibodies were incubated for 15 min at room temperature, and Post-Primary and horseradish peroxidase (HRP) labeled Polymer were incubated at the instrument's default conditions. […]

The test system of data set [1] is SALL4 binding to cereblon. The class given is cell-based, human. As to the method:
Binding of full length SALL4 to cereblon in cells was then tested by co-immunoprecipitation (see FIG. 3). HA-tagged WT, G416A, or G600A SALL4 was immunoprecipitated from cells, and the level of co-purifying cereblon was assessed by western blot. Briefly, a Lenti-x 293 cell line with a CRISPR-cas9 knock-out of cereblon and stable expression of HA-tagged SALL4 or SALL4 mutants was transfected with either GST-cereblon or empty vector. […] The amount of co-purifying GST-cereblon was then assessed by western blot.

Data set [2] can be described thus: Toxicokinetics in huCRBN mice. It is filed as in vivo. As to conditions: oral, GD 15. How it is done: Thalidomide was administered to female HOM huCRBN mice by oral gavage at dose levels of 0 (1.0% [w/v] carboxymethylcellulose [1500-3000 cP] in RO deionized water), 100, 300, or 1000 mg/kg/day once daily on Gestation Day [GD] 6 through 15. On GD 15, blood samples were collected from the submandibular vein of mice assigned to study at 0.5, 1, 3, 6, and 24 hours postdose for bioanalytical and toxicokinetic evaluation. […] Mice were euthanized and examined, and a gross necropsy was performed. The ovaries and uterus were examined for number and distribution of corpora lutea, implantation sites, placentae (size, color, and shape), live and dead fetuses, and early and late resorptions. Fetuses were euthanized by an intraperitoneal injection of sodium pentobarbital (390 mg/mL). Fetuses were weighed and examined for sex and external abnormalities. Late resorptions were examined for external abnormalities and sex to the extent possible. The body weight of each fetus was recorded. Fetuses were individually identified with the study number, litter number and uterine distribution. Approximately one-half of the fetuses in each litter were examined for visceral abnormalities by using an adaptation of the sectioning technique of Wilson. Each fetus was fixed in Bouin's solution; sections were stored in alcohol. The remaining fetuses (approximately one-half of the fetuses in each litter) were examined for skeletal abnormalities after staining with alizarin red S. Following examination, skeletal preparations were retained in glycerin with thymol added as a preservative.

The test system of data set [3] is SALL4 binding to cereblon. Nature of the data set: Co-immunoprecipitation of CRBN and SALL4 variants in lenti-X-293 cells expressing GST-CRBN. To be noted: 40 μM thalidomide, 8 hours, 1 μM MLN4924. The class given is cell-based, human. As to the method: All cells were treated with 1 μM MLN4924, and either 40 μM thalidomide (+) or DMSO vehicle control (−) as indicated for 8 hours (n=2 biological replicates).
Lenti-X-293 cells were cotransfected with pDEST27-CRBN, which encodes GST-CRBN, and pLOC empty vector (Thermo Fisher), which contains a blasticidin resistant gene. Two days after transfection, cells were trypsinized and seeded into 96-well plates through limiting dilution. After selectin with blasticidin (20 μg/mL) for 2 weeks, single clones were picked, expanded and screened for overexpression of GST-CRBN via immunoblot analysis with anti-CRBN65 antibody. Next, lenti-X-293 cells stably expressing GST-CRBN Human were infected with lentiviruses expressing SALL4 wild-type and variants to generate lenti-x-293 cells stably expressing GST-CRBN and SALL4. Then, cells were treated with DMSO or 40 μM thalidomide for 8 hours in the presence of 1 μM MLN4924, and lysed in Buffer B [50 mM Tris (pH 7.4), 150 mM NaCl, 0.5% NP-40, 10% glycerol, 1× Complete Ultra protease inhibitor (Roche), and 1× PhosphoSTOP (Roche)]. […] After washing the anti-HA resin with Buffer B for 6 times, anti-HA immunoprecipitates were eluted by boiling in 2×LDS loading buffer at 90° C. for 5 minutes, and then subjected to immunoblot analysis.

“Also recorded” adds a separate entry of the source.

T1 sequence (Q96SW2 whole entry): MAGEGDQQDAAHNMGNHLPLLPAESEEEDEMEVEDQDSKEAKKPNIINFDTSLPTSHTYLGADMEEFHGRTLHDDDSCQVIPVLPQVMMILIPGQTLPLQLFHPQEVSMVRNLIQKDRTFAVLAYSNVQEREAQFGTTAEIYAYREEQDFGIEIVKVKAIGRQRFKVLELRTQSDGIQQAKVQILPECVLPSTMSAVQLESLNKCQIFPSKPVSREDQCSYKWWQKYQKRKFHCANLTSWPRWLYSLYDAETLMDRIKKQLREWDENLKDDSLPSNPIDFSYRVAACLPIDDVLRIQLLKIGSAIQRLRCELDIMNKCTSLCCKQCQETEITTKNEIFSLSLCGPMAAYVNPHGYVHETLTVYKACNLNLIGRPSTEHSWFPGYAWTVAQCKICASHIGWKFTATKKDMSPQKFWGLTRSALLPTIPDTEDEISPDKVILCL
T1 sequence (Q3U1J4 whole entry partner): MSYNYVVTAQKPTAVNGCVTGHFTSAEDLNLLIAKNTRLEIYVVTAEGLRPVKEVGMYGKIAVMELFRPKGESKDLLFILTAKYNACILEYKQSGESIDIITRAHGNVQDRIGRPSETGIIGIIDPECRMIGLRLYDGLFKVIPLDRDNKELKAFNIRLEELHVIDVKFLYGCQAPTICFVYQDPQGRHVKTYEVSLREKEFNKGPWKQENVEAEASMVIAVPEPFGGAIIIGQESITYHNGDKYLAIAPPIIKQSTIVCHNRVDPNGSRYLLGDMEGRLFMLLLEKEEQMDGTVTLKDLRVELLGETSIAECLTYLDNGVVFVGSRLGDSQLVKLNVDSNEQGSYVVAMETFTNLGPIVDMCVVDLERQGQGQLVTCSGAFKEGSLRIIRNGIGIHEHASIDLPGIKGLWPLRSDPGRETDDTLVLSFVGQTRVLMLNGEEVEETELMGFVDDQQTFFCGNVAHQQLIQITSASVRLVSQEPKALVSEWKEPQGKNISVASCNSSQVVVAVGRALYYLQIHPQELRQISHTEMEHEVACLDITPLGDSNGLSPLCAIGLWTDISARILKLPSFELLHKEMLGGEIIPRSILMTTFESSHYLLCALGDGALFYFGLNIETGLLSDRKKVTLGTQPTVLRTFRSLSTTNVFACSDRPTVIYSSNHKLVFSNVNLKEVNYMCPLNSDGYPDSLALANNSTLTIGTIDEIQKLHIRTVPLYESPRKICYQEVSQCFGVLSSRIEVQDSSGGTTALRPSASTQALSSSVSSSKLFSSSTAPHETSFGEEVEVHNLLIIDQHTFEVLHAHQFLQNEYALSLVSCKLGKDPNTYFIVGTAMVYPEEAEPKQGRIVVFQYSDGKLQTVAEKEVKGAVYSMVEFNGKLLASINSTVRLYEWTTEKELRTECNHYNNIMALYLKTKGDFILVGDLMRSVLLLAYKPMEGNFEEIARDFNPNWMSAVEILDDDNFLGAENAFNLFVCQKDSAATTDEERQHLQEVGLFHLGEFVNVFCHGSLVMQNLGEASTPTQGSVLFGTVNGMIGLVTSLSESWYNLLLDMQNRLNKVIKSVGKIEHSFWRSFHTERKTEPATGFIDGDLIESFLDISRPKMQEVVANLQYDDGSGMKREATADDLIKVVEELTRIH

Regarding `O=C1CCC(N2C(=O)c3ccccc3C2=O)C(=O)N1` (stereo not shown) [thalidomide], on SALL4, the “SALL4 protein levels in testis” value is “remain unchanged; also recorded: caused degradation of ZFP91 but not SALL4”. Besides, in data set [1] (HA-tagged G416A SALL4, anti-HA pull-down), the “Binding of G416A SALL4 to cereblon” value was “disrupted the binding significantly”. Also, the “Binding of G600A SALL4 to cereblon” value in data set [1] (HA-tagged G600A SALL4, anti-HA pull-down) was “strong, compound-dependent binding to cereblon”. Further, in data set [1] (HA-tagged WT SALL4, anti-HA pull-down), the “Binding of WT SALL4 to cereblon (co-purifying GST-cereblon, western blot)” value was “strong, compound-dependent binding to cereblon”. Moreover, in data set [2] (100 mg/kg/day), the “Mean plasma exposure (area under the curve)” value (“Mean plasma exposure” below) was 35,100 ng·hr/mL. Also, in data set [2] (300 mg/kg/day), the “Mean plasma exposure” value is 78,600 ng·hr/mL. The “Mean plasma exposure” value in data set [2] (1000 mg/kg/day) is reported as 143,000 ng·hr/mL. Besides, in data set [3], the “Binding of G416A SALL4 to cereblon (co-IP)” value is listed as “disrupted cereblon binding in cells”, the “Binding of G600A SALL4 to cereblon (co-IP)” value is recorded as “able to bind cereblon” and the “Binding of wild-type SALL4 to cereblon (co-IP)” value is listed as “able to bind cereblon”.
